Assay results reported in patent US20070169214A1, “Thiol methyltransferase-based selection” (priority 2004, published 2007).

Key:
[1] = system: E. coli M15 cells; experiment: Bacterial growth (OD600) in the presence of toxin; format: cell-based, Escherichia coli; details: for growth of non-transgenic bacteria: E. coli M15 with empty vector pQE30, 4 h at 37° C.; for ΔOD600 (growth of transgenic bacteria): E. coli M15 with pQETMT1, 4 h at 37° C.
Procedure: E. coli M15 cells transformed with the empty vector pQE30 (referred to as non-transgenic bacteria) or pQETMT1 (hereafter referred to as transgenic bacteria) were grown as 15 ml starter cultures in LB medium supplemented with 100 μg/ml ampicillin and […] kanamycin at 37° C. for 16 h. 5 ml of each culture was then transferred to 100 ml of fresh LB medium containing the same concentrations of both antibiotics and cultures grown to an OD600 of 0.6. […] In the culture tubes, expression of the recombinant TMT protein was induced by adding […] (IPTG) to a final concentration of 1 mM. All the culture tubes were incubated at 37° C. for another 4 h. Bacterial growth at different toxin concentrations was measured by optical density (OD600) and the difference in OD600 (ΔOD600) was calculated.

[2] = system: HEK 293 cells; experiment: Growth of transfected HEK 293 cells monitored by GFP fluorescence; format: cell-based; details: 0-200 mM toxin, 24 h
Procedure: A TMT insert was generated by linearizing pBluescript vector harboring the full-length clone (described in Example 2) with SpeI and ApaI and inserted into the pTracer™-SV40 mammalian expression plasmid. This vector contains a cycle-3-GFP, an improved Green Fluorescent Protein gene fused to Zeocin™ resistance gene for selection in mammalian cells. Transfection of HEK 293 cells was carried out in 24 well plates using Fugene 6™ Transfection reagent (Roche Molecular Biochemicals). A ratio of DNA to Fugene of 1:6 and 200 or 400 ng of DNA were used. Each well was seeded with 2×10^5 cells grown in a monolayer for 16 h in […] DMEM containing 10% serum. Transfection was performed on 90% confluent cells. Prior to transfection, the medium containing serum was removed and replaced with 150 μl of serum-free medium in each well. A DNA/Fugene 6 mixture was incubated for 15 min at room temperature and 100 μl of this mixture was added drop-wise to each well while cells were gently rocked. After a 3 hour incubation, another 250 μl DMEM containing 2× serum was added to each well and cells were further incubated for 48 h. […] These cells were allowed to grow for another 24 h. Growth was monitored by fluorescent microscopy to detect the presence of GFP. […] The emission of CH3I was then monitored by gas chromatography.

[3] = system: tobacco plants; experiment: In vivo TMT activity of tobacco plants grown on SCN; details: transgenic tobacco plant
Procedure: (§1) In vivo assay: This assay was used in the studies described herein. In vivo TMT activity is measured in 10 leaf disks placed on a Whatman filter paper (4.25 cm) in a 50-ml Erlenmeyer flask, and incubated with 2 ml of a 100 mM KI solution (Saini et al., [1995] Plant, Cell and Environment, 18:1027-1033). The flask is sealed with a rubber stopper and CH3I formed in the headspace is quantified after 2 h by gas chromatography. Assays for alternative substrates or inhibitors of the enzyme contained 20 mol m^−3 KI (the known substrate) and a range of concentrations of the compound to be tested. In the assay for HS^− methylation, KI in the above assay is replaced with 20 mM (NH4)2S.
With reference to FIG. 34, the effect of SCN on in vivo TMT activity of transgenic/non-transgenic tobacco plants was analysed. […] As the concentration of SCN increased to 5 mM, the transgenic plant was able to methylate the SCN but beyond 5 mM, the activity decreased as higher SCN levels appear to confer some toxicity to the plant.

[4] = system: A. thaliana plants; experiment: In vivo TMT activity in 3 Arabidopsis phenotypes grown on SCN
Procedure: as §1
With reference to FIG. 36, the effect of SCN on TMT activity in 3 Arabidopsis phenotypes was analysed. […] As the concentration of SCN increased the TT and Tt plants were less and less able to methylate the SCN. TT plants could methylate the SCN up to 10 mM while the Tt had no activity after 2.5 mM, as it appears that higher levels of SCN may have some toxicity to the heterozygote plant.

[5] = system: potato roots; experiment: Potato root growth on MS with toxin (WinRhizo root length); design: species or system Solanum tuberosum cv Russet Burbank; details: increasing toxin concentration, 10 days, transgenic and non-transgenic roots
Text: pBluescript plasmid harboring the full-length TMT1clone (SEQ ID NO:1) was linearized with BamHI and KpnI and cloned in a sense orientation into the binary pBin19 double enhancer vector between the 35S promoter of CaMV and the Nos terminator. Agrobacterium rhizogenes wild-type strain A4 was then transformed either with the pBin/TMT vector or pBin vector alone. Freshly cut Solanum tuberosum cv Russet Burbank petioles were decontaminated by soaking in diluted commercial bleach (10%) containing 0.01% Tween-20™ for 10 min, followed by three 10 min washes in sterile water. The petioles were then cut into 4 cm segments and cultured apical side down in MS medium containing 0.4% phytagel™. The upper parts of the petioles were infected with freshly streaked A. rhizogenes A4 carrying the pBin19 vector alone (non-transgenic roots) or with the pBin vector with the TMT insert (transgenic roots). Roots started appearing after about 10 days. […]
Every 2 weeks, the carbenicillin concentration was halved until no carbenicillin was present in the medium. All roots were then screened for TMT activity using an in vivo technique where KI in solution (100 mM) was added to the roots and emission of CH3I was detected using gas chromatography. […] The roots were placed in MS containing 0.2% phytagel and allowed to grow for 10 days after which the growth was measured using WinRhizo™ software.

Compound: I [KI]
- growth of non-transgenic bacteria ([1]; 250 mM KI): growth of the non-transgenic bacteria was halted
- ΔOD600 (growth of transgenic bacteria) ([1]; 250 mM KI): 0.547
- GFP fluorescence (cell viability), transgenic vs non-transgenic cells [2]: more fluorescence in the transgenic than in the non-transgenic cells

Compound: N#C[S-].[Na+] [NaSCN]
- growth of non-transgenic bacteria ([1]; 200 mM NaSCN): halted non-transgenic bacterial growth
- ΔOD600 (growth of transgenic bacteria) ([1]; 200 mM NaSCN): 0.377
- SCN concentration beyond which in vivo TMT activity decreased [3]: > 5 mM
- SCN concentration up to which plants could methylate SCN (TMT activity) ([4]; TT (wild type) plants): up to 10 mM
- SCN concentration after which there was no TMT activity ([4]; Tt (heterozygous) plants): > 2.5 mM
- root growth (root length) [5]: growth of both transgenic and non-transgenic roots was affected
- GFP fluorescence (cell viability), transgenic vs non-transgenic cells [2]: more fluorescence in the transgenic than in the non-transgenic cells
